Reference: patent US20260191933A1, “PHARMACEUTICAL COMBINATIONS AND USES THEREOF” (The University of Melbourne, priority 2022, published 2026)

What was measured:
CSPG-ECM (neurofibrosis) = test: I.C.V. fluorosamine in obese mice: CSPG-ECM expression (WFA immunostaining); format: in vivo, C57BL/6J mice
Protocol: All image quantification was performed in Image J (NIH) software (NIH, MA). Raw images underwent background subtraction using a rolling ball algorithm to minimize background and any potential variance in tissue autofluorescence. To quantify area and intensity of the CSPG-ECM within each brain region (ARC, VMH or RSG cortex) images were thresholded and binarized to create a region of interest (ROI) mask of only the CSPG-ECM. For each brain area, CSPG-ECM ROI area (μm^2) and intensity (sum of all pixel intensities within the ROI) was calculated. This process was automated to minimise bias and to account for differences in brain nuclei size across multiple images. Brain nuclei were defined in accordance with the Paxinos and Franklin mouse brain atlas (http://labs.gaidi.ca/mouse-brain-atlas/). The area and intensity of CSPG-ECM within each region was normalised to the respective control.
(§1) Under isoflurane anaesthetic 12-week HFHS fed C57BL/6J or AgRP-Cas9 mice were implanted stereotaxically with guide cannulas into the right lateral ventricle (0.2 mm posterior, 1.0 mm lateral from bregma). Guide cannula was positioned 1.3 mm above the injection site (1 mm ventral to the surface of the skull). AgRP-Cas9 mice were treated with either AAV-gScrambled or AAV-gIR and underwent guide cannula placement 7 days post AAV administration. Mice were administered I.C.V. vehicle (ddH2O), fluorosamine (100 μg/animal/day or 250 μgl/animal/day) in a volume of 2 μl/animal and all compounds were delivered approximately 1 h before lights off (7 pm).

[1] = tested on: 12-week-HFHS-diet-fed obese mice; test: Intranasal PZ6005 in obese mice: body weight, tissue-specific adiposity, fat mass; format: in vivo, C57BL/6J mice; conditions: for body weight lost at the end of the experiment: day 14
Protocol: (§2) Metabolic measurements were undertaken in the Melbourne Mouse Metabolic Phenotyping Platform (The University of Melbourne, Australia). Glucose tolerance tests were performed on 6 h fasted conscious mice respectively by injecting D-glucose (2 mg/g of lean body mass and 1 mg/g lean mass for db/db and HFHS+STZ mice) into the peritoneal cavity and measuring glucose in tail blood immediately before and at 15, 30, 45, 60, 90 and 120 min after injection using an Accu-Check glucometer (Roche, Germany). The areas under glucose excursion curves were determined and expressed as mmol/l×min. Fasted (12 h fast) plasma insulin or glucose levels were determined using a Rat/Mouse Insulin ELISA (EZRMI-13K, Merck Millipore, CA) or an Accu-Check glucometer respectively. The HOMA-IR was calculated using the equation [(glucose×insulin)/405]. Adiposity was measured using TD-NMR minispec (Bruker Optics Inc., Billerica, MA).

diet-induced obese mice = test: I.C.V. PZ6005 and/or S.C. liraglutide, 28 days: body weight, adiposity, food intake, energy expenditure; format: in vivo, C57BL/6j mice
Protocol: as §2
(§3) Mice were acclimated for 24 h and then monitored for 48 h in an environmentally controlled Promethion Metabolic Screening System (Sable Systems International, NV) fitted with indirect open circuit calorimetry, food consumption and activity monitors to measure activity, caloric intake and energy expenditure. Respiratory quotients were calculated as the ratio of CO2 production over O2 consumption respiratory exchange ratio and energy expenditure was calculated using the Weir equation (Kcal h−1=60×(0.003941×VO2+0.001106×VCO2). To account for difference in body mass/composition energy expenditure was analysed and adjusted using ANCOVA using scripts available at the National Mouse Metabolic Phenotyping Centers (MMPC, Nashville, TN, USA) Energy Expenditure Analysis Page (https://www.mmpc.org/shared/regression.aspx).

[2] = tested on: 12-week HFHS fed obese mice; test: I.C.V. fluorosamine in obese mice: body weight, adiposity, energy expenditure, food intake; format: in vivo, C57BL/6J mice; conditions: I.C.V. for 10 days
Protocol: as §2, §3, §1

[3] = tested on: insulin induced p-AKT signalling in the ARC; test: I.C.V. fluorosamine: insulin-induced p-AKT in the ARC; format: in vivo, C57BL/6J mice; conditions: following 10 days I.C.V. treatment
Protocol: Mice were injected intraperitoneally with vehicle (PBS) or insulin (3 mU/g, i.p., Actrapid, Nova Nordisk, Denmark) and mice were transcardially perfused (as described above) 15 min with 10% neutral buffered formalin. The brains were post-fixed for 16 h on a rocking platform at RT and then kept for two days in 30% sucrose in PBS to cryoprotect the tissue, before freezing on dry ice. 30 μm sections were cut in the coronal plane throughout the entire rostral-caudal extent of the hypothalamus. Sections were pre-treated for 10 mins in 0.3% glycine, washed in PBS-T and incubated for 10 min in 0.03% SDS. Sections were then blocked in 5% blocking buffer for 1 h at RT and incubated for 48 h with rabbit anti-p-AKT (Ser-473) (1:300; #4060, Cell Signaling Technology, Beverly, MA) in 1% blocking buffer. Sections were then incubated in 5% blocking buffer containing either goat anti-rabbit Alexa Fluor 647 (ab150083, Abcam, Cambridge, UK) or biotinylated goat anti-rabbit (BA-1000, Vector Laboratories, CA, no sodium azide in blocking buffer). […]

[4] = tested on: 12-week-HFHS-diet-fed obese mice; test: Intranasal PZ6005 in obese mice: I.P. GTT, ITT, fasting glucose; format: in vivo, C57BL/6J mice
Protocol: as §2

[5] = intranasal 1 mg treatment, 14 days

CC(=O)NC1C(OC(C)=O)OC(COC(C)=O)[C@@H](F)C1OC(C)=O (stereo partly drawn) [PZ6005, per-O-acetylated-4-F-N-acetylglucosamine]
CSPG-ECM expression in the habenula (CSPG-ECM (neurofibrosis); I.C.V., at the highest dose): only partially attenuated
neurofibrosis within the ARC (WFA immunostaining) (CSPG-ECM (neurofibrosis); obese mice, I.C.V. daily for 10 days): significantly attenuated
CSPG-ECM in other brain areas such as the RSG cortex (CSPG-ECM (neurofibrosis); obese mice, I.C.V. for 10 days): did not reduce
whole-body metabolic improvements observed with intracerebroventricular delivery ([1]; diet-induced obese mice, intranasal 14 days): recapitulated
mass of epiWAT, BAT and liver [1, 5]: decreased
post-treatment fat mass decreased by, compared to the pre-treatment mass [1, 5]: 12.59±2.29%
body weight lost at the end of the experiment ([1]; intranasal 1 mg treatment): 16.32±1.41%
day from which weight was robustly decreased ([1]; intranasal 1 mg/animal/day): 7 days
post-treatment fat mass diminished by, compared to the pre-treatment mass ([1]; intranasal 5 mg treatment, 14 days): 23.21±9.27%
day from which weight was robustly decreased ([1]; intranasal 5 mg/animal/day): 3 days
body weight lost at the end of the experiment ([1]; intranasal highest dose (5 mg)): 6.36±0.88%
tissue mass ([1]; intranasal highest dose, 14 days): remarkedly reduced
mass of ingWAT, epiWAT and the liver (diet-induced obese mice; 28-day treatment, compared with control littermates): lower mass
difference in fat mass between the mid- and post-treatment (diet-induced obese mice; 14 days after last PZ6005 dose): no significant difference
energy expenditure and oxygen consumption (diet-induced obese mice; Day 8-Day 11 of the treatment, day and night): consumed more energy
mean percentage change in weight (diet-induced obese mice; day 28, PZ6005 100 μg/animal I.C.V. every other day first 14 days, liraglutide 200 μg/kg/day S.C. 28 days): −13.02±1.15%
adiposity [2]: reduced adiposity
body weight [2]: promoted weight loss
energy expenditure ([2]; independently of ambulatory activity): enhanced energy expenditure
food intake ([2]; through enhanced satiety): supressed food intake
insulin induced p-AKT signalling in the ARC [3]: enhanced
fasting (12 hrs) glucose level ([4]; both doses of intranasal treatment): Reduction
insulin sensitivity (I.P. ITT) ([4]; intranasal 1 or 5 mg/animal/day, 4 hrs fasting): enhanced insulin sensitivity
glucose tolerance (I.P. GTT) ([4]; intranasal 1 or 5 mg/animal/day, 6 hrs fasting, vs control littermates): better glucose tolerance
